Test results reported in the supplement of paper PMC13380429.

Columns and labels:
Conditions in all cases: 72 h
Calu-3 [1] = assay: relative viability EC50 (midpoint between 100% and the lowest measured viability); higher = less toxic
HepG2 [2] = assay: as above
Caco-2 [3] = assay: as above
U2OS [4] = assay: as above
Vero E6 [5] = assay: as above
Calu-3 [6] = assay: drug sensitivity score (DSS) for viability; higher = more toxic; extreme values may be limits of the assay
HepG2 [7] = assay: as above
Caco-2 [8] = assay: as above
U2OS [9] = assay: as above
Vero E6 [10] = assay: as above
Calu-3 [11] = assay: cell viability relative to DMSO; higher = less toxic
HepG2 [12] = assay: as above
Caco-2 [13] = assay: as above
U2OS [14] = assay: as above
Vero E6 [15] = assay: as above

Structure (SMILES) | relative viability EC50 (Calu-3 [1]) | relative viability EC50 (HepG2 [2]) | relative viability EC50 (Caco-2 [3]) | relative viability EC50 (U2OS [4]) | relative viability EC50 (Vero E6 [5]) | drug sensitivity score (Calu-3 [6]) | drug sensitivity score (HepG2 [7]) | drug sensitivity score (Caco-2 [8]) | drug sensitivity score (U2OS [9]) | drug sensitivity score (Vero E6 [10]) | cell viability (Calu-3 [11]; 1 nM) | cell viability (Calu-3 [11]; 10 nM) | cell viability (Calu-3 [11]; 100 nM) | cell viability (Calu-3 [11]; 1000 nM) | cell viability (Calu-3 [11]; 10000 nM) | cell viability (HepG2 [12]; 1 nM) | cell viability (HepG2 [12]; 10 nM) | cell viability (HepG2 [12]; 100 nM) | cell viability (HepG2 [12]; 1000 nM) | cell viability (HepG2 [12]; 10000 nM) | cell viability (Caco-2 [13]; 1 nM) | cell viability (Caco-2 [13]; 10 nM) | cell viability (Caco-2 [13]; 100 nM) | cell viability (Caco-2 [13]; 1000 nM) | cell viability (Caco-2 [13]; 10000 nM) | cell viability (U2OS [14]; 1 nM) | cell viability (U2OS [14]; 10 nM) | cell viability (U2OS [14]; 100 nM) | cell viability (U2OS [14]; 1000 nM) | cell viability (U2OS [14]; 10000 nM) | cell viability (Vero E6 [15]; 1 nM) | cell viability (Vero E6 [15]; 10 nM) | cell viability (Vero E6 [15]; 100 nM) | cell viability (Vero E6 [15]; 1000 nM) | cell viability (Vero E6 [15]; 10000 nM)
Cc1cc(C(C)(C)C)c(O)c(C)c1CC1=NCCN1 [oxymetazoline] | > 10 µM | > 10 µM | > 10 µM | > 10 µM | > 10 µM | 0 | 1.5 | 0.9 | 0 | 0 | 92.1% | 92.3% | 94.5% | 101% | 107% | 103% | 87.9% | 104% | 84% | 88% | 97.6% | 93.7% | 80.4% | 96.6% | 83.6% | 100% | 99.5% | 98.9% | 100% | 96.4% | 100% | 106% | 102% | 95.7% | 98.7%
O=C(O)C1=CCCNC1 [guvacine] | > 10 µM | > 10 µM | > 10 µM | > 10 µM | > 10 µM | 0.4 | 0 | 0 | 0 | 0 | 106% | 99% | 102% | 88.2% | 92.2% | 102% | 97% | 96.3% | 100% | 105% | 99.7% | 85.6% | 102% | 102% | 96.5% | 105% | 98.9% | 102% | 96.5% | 102% | 100% | 101% | 98% | 104% | 97.5%
O=C1NC(=O)c2c1c1c3ccccc3[nH]c1c1[nH]c3ccccc3c21 [arcyriaflavin-a] | > 10 µM | 0.158 µM | > 10 µM | > 10 µM | > 10 µM | 0 | 12.6 | 0.3 | 0 | 0 | 105% | 112% | 95.6% | 104% | 106% | 91.7% | 101% | 86.3% | 43.3% | 47.4% | 98.1% | 107% | 99.9% | 98.9% | 85.4% | 104% | 99.8% | 101% | 96.9% | 93.7% | 103% | 103% | 99.5% | 92.1% | 91.7%
